From PubChem BioAssay AID248 (DTP/NCI, 2004)
“And” between values parts separate entries of the source, which are not always exact repeats. Equal entries are not always repeated. Inconclusive results and toxic doses are left out.

Test system: L1210 leukemia ip in BDF1 mice, survival T/C
Assay: NCI In Vivo Anticancer Drug Screen. Data for tumor model L1210 Leukemia (intraperitoneal) in B6D2F1 (BDF1) mice
Conditions: endpoint: mean survival time, higher = longer survival
Method in brief: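 Read-out is survival time, reported as the treated-group measurement over the vehicle-control measurement.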

[1] = dose: 100.0 mg/kg/injection, schedule: Q04DX003 (ip), vehicle: saline
[2] = dose: 100.0 mg/kg/injection, schedule: Q04DX002 (ip), vehicle: saline with Tween-80
[3] = dose: 200.0 mg/kg/injection, schedule: Q04DX002 (ip), vehicle: saline with Tween-80
[4] = dose: 400.0 mg/kg/injection, schedule: Q04DX002 (ip), vehicle: saline with Tween-80
[5] = dose: 400.0 mg/kg/injection, schedule: Q04DX003 (ip), vehicle: saline with Tween-80
[6] = dose: 100.0 mg/kg/injection, schedule: Q01DX009 (ip), vehicle: saline with Tween-80
[7] = dose: 200.0 mg/kg/injection, schedule: Q01DX009 (ip), vehicle: saline with Tween-80
[8] = dose: 100.0 mg/kg/injection, schedule: Q04DX003 (ip), vehicle: acetone
[9] = dose: 75.0 mg/kg/injection, schedule: Q01DX001 (ip), vehicle: saline
[10] = dose: 300.0 mg/kg/injection, schedule: Q01DX001 (ip), vehicle: saline
[11] = dose: 100.0 mg/kg/injection, schedule: Q01DX009 (ip), vehicle: Klucel (hydroxypropylcellulose) (HPC)
[12] = dose: 200.0 mg/kg/injection, schedule: Q01DX009 (ip), vehicle: Klucel (hydroxypropylcellulose) (HPC)
[13] = dose: 100.0 mg/kg/injection, schedule: Q04DX003 (ip), vehicle: saline with Tween-80
[14] = dose: 200.0 mg/kg/injection, schedule: Q04DX003 (ip), vehicle: saline with Tween-80
[15] = dose: 400.0 mg/kg/injection, schedule: Q01DX009 (ip), vehicle: Klucel (hydroxypropylcellulose) (HPC)
[16] = dose: 100.0 mg/kg/injection, schedule: Q01DX001 (ip), vehicle: carboxymethylcellulose (CMC)
[17] = dose: 200.0 mg/kg/injection, schedule: Q01DX001 (ip), vehicle: carboxymethylcellulose (CMC)
[18] = dose: 400.0 mg/kg/injection, schedule: Q01DX001 (ip), vehicle: carboxymethylcellulose (CMC)

With Cc1ccc(-n2c(=O)c(N=Nc3ccccc3C)c(O)n(-c3ccccc3C)c2=S)cc1 the T/C (dose: 37.5 mg/kg/injection, schedule: Q01DX001 (ip), vehicle: Klucel (hydroxypropylcellulose) (HPC)) was 95 % of control, the T/C (dose: 75.0 mg/kg/injection, schedule: Q01DX001 (ip), vehicle: Klucel (hydroxypropylcellulose) (HPC)) was 103 % of control and the T/C (dose: 150.0 mg/kg/injection, schedule: Q01DX001 (ip), vehicle: Klucel (hydroxypropylcellulose) (HPC)) was 100 % of control.

For Cc1cc(C)c(C(C)C)cc1C(C)C, the T/C [1] was 100 % of control, the T/C (dose: 200.0 mg/kg/injection, schedule: Q04DX003 (ip), vehicle: saline) was 100 % of control and the T/C (dose: 400.0 mg/kg/injection, schedule: Q04DX003 (ip), vehicle: saline) was 90 % of control.

With COc1cc(\C=N/N=C/C=C/c2ccccc2)cc(OC)c1OC the T/C (dose: 50.0 mg/kg/injection, schedule: Q04DX003 (ip), vehicle: saline with Tween-80) was 95 % of control, the T/C [2] was 87 % of control and 90 % of control and the T/C [3] was 104 % of control and 113 % of control. The T/C [4] was 102 % of control and 103 % of control and the T/C [5] was 93 % of control and 88 % of control.

In the case of COC(=S)Nc1cccc(OC(=O)NC(C)C)c1, the T/C (dose: 100.0 mg/kg/injection, schedule: Q01DX001 (ip), vehicle: saline with Tween-80) is reported as 97 % of control, the T/C (dose: 200.0 mg/kg/injection, schedule: Q01DX001 (ip), vehicle: saline with Tween-80) is reported as 95 % of control and the T/C (dose: 400.0 mg/kg/injection, schedule: Q01DX001 (ip), vehicle: saline with Tween-80) is reported as 100 % of control.

c1ccc(CN2CCN(Cc3ccccc3)C2c2ccccc2)cc1 was tested, and the T/C (dose: 25.0 mg/kg/injection, schedule: Q01DX009 (ip), vehicle: saline with Tween-80) was 97 % of control, the T/C (dose: 50.0 mg/kg/injection, schedule: Q01DX009 (ip), vehicle: saline with Tween-80) was 103 % of control and the T/C [6] was 106 % of control. The T/C [7] was 105 % of control and the T/C (dose: 400.0 mg/kg/injection, schedule: Q01DX009 (ip), vehicle: saline with Tween-80) was 106 % of control.

With CCCC1OCC(C)C(C)O1 (centres undefined) the T/C (dose: 50.0 mg/kg/injection, schedule: Q01DX009 (ip), vehicle: acetone) was 101 % of control, the T/C (dose: 100.0 mg/kg/injection, schedule: Q01DX009 (ip), vehicle: acetone) was 98 % of control and the T/C [8] was 106 % of control. For the same molecule, the T/C (dose: 200.0 mg/kg/injection, schedule: Q01DX009 (ip), vehicle: acetone) was 112 % of control, the T/C (dose: 200.0 mg/kg/injection, schedule: Q04DX003 (ip), vehicle: acetone) was 109 % of control and the T/C (dose: 400.0 mg/kg/injection, schedule: Q04DX003 (ip), vehicle: acetone) was 123 % of control.

Cc1ccc(S(=O)(=O)CN2CCC(=O)c3ccccc32)cc1 was tested, and the T/C [9] was 104 % of control, the T/C (dose: 150.0 mg/kg/injection, schedule: Q01DX001 (ip), vehicle: saline) was 101 % of control and the T/C [10] was 93 % of control.

For COc1cc([N+](=O)[O-])ccc1NC(=O)Nc1cc(C)ccn1, the T/C [11] was 100 % of control and the T/C [12] was 93 % of control.

C=CCC(O)c1ccccc1 (centres undefined) was tested, and the T/C (dose: 100.0 mg/kg/injection, schedule: Q04DX002 (ip), vehicle: saline) was 103 % of control, the T/C (dose: 200.0 mg/kg/injection, schedule: Q04DX002 (ip), vehicle: saline) was 100 % of control and the T/C (dose: 400.0 mg/kg/injection, schedule: Q04DX002 (ip), vehicle: saline) was 113 % of control.

CCCCCCCCCCCC[N+](CCCCCCCCCCCC)=C1SCCS1 was tested, and the T/C (dose: 1.56 mg/kg/injection, schedule: Q04DX003 (ip), vehicle: carboxymethylcellulose (CMC)) was 96 % of control, the T/C (dose: 3.13 mg/kg/injection, schedule: Q04DX003 (ip), vehicle: carboxymethylcellulose (CMC)) was 104 % of control and the T/C (dose: 6.25 mg/kg/injection, schedule: Q04DX003 (ip), vehicle: carboxymethylcellulose (CMC)) was 110 % of control.

For Cc1ccc(-c2ccc3sc(C)[n+](C)c3c2)cc1, the T/C [1] was 92 % of control.

In the case of CCCCCCCCC(=O)[O][Hg][c]1ccccc1, the T/C (dose: 75.0 mg/kg/injection, schedule: Q01DX001 (ip), vehicle: other) is reported as 106 % of control.

In the case of CCCCCCCN(CCCCCCC)CC(O)c1cc2ccc(Cl)cc2c2ncccc12 (centres undefined), the T/C (dose: 100.0 mg/kg/injection, schedule: Q01DX009 (sc), vehicle: olive oil, sesame oil, peanut oil) is reported as 109 % of control, the T/C (dose: 200.0 mg/kg/injection, schedule: Q01DX009 (sc), vehicle: olive oil, sesame oil, peanut oil) is reported as 108 % of control and the T/C (dose: 400.0 mg/kg/injection, schedule: Q01DX009 (sc), vehicle: olive oil, sesame oil, peanut oil) is reported as 95 % of control.

With CCCCCCCCCCCCN1CCC(=O)NC1=O the T/C [6] was 100 % of control and the T/C [7] was 97 % of control.

For CN(C)c1ccc(SCC(=O)c2ccccc2)cc1, the T/C [13] was 93 % of control, the T/C [14] was 101 % of control and the T/C [5] was 95 % of control.

CC1=CC(=O)NP(=O)(OC2CCCCC2)N1 (centres undefined) was tested, and the T/C (dose: 100.0 mg/kg/injection, schedule: Q01DX005 (ip), vehicle: sodium bicarbonate) was 91 % of control.

In the case of O=C1OC(c2cccc(Cl)c2)=N/C1=C\c1ccc2c(c1)OCO2, the T/C [2] is reported as 95 % of control, the T/C [3] is reported as 89 % of control and the T/C [4] is reported as 92 % of control.

CC(C)(C)C(N)=O was tested, and the T/C [11] was 92 % of control, the T/C (dose: 100.0 mg/kg/injection, schedule: Q04DX003 (ip), vehicle: other) was 94 % of control and the T/C [12] was 90 % of control. The T/C (dose: 200.0 mg/kg/injection, schedule: Q04DX003 (ip), vehicle: other) was 98 % of control, the T/C [15] was 95 % of control and the T/C (dose: 400.0 mg/kg/injection, schedule: Q04DX003 (ip), vehicle: other) was 98 % of control.

With Cc1cc(C)n(C(=O)Nc2ccccc2)n1 the T/C [2] was 105 % of control and the T/C [3] was 100 % of control.

C=C1C=C(C)N(C(=O)c2ccccc2Br)CCN1C(=O)c1ccccc1Br was tested, and the T/C (dose: 100.0 mg/kg/injection, schedule: Q04DX003 (ip), vehicle: Klucel (hydroxypropylcellulose) (HPC)) was 96 % of control, the T/C (dose: 200.0 mg/kg/injection, schedule: Q04DX003 (ip), vehicle: Klucel (hydroxypropylcellulose) (HPC)) was 105 % of control and the T/C (dose: 400.0 mg/kg/injection, schedule: Q04DX003 (ip), vehicle: Klucel (hydroxypropylcellulose) (HPC)) was 100 % of control.

With CC1OC1CO (centres undefined) the T/C [13] was 96 % of control, the T/C [14] was 101 % of control and the T/C [5] was 89 % of control.

In the case of O=c1c2ccccc2[nH]c(=S)n1-c1ccc(Cl)cc1, the T/C [11] is reported as 100 % of control, the T/C [13] is reported as 100 % of control and the T/C [12] is reported as 111 % of control. For the same molecule, the T/C [14] was 100 % of control, the T/C [15] was 97 % of control and the T/C [5] was 97 % of control.

In the case of Ic1ccc(/C=C2\C=Cc3ccccc32)cc1, the T/C [16] is reported as 100 % of control, the T/C [17] is reported as 100 % of control and the T/C [18] is reported as 100 % of control.

With Cc1ccc(S(=O)(=O)N2CCN(C)CC2)cc1 the T/C (dose: 100.0 mg/kg/injection, schedule: Q01DX001 (ip), vehicle: saline) was 103 % of control, the T/C (dose: 200.0 mg/kg/injection, schedule: Q01DX001 (ip), vehicle: saline) was 97 % of control and the T/C (dose: 400.0 mg/kg/injection, schedule: Q01DX001 (ip), vehicle: saline) was 97 % of control.

For CC(C)(C)C1(C)CN(N=O)C(=O)O1 (centres undefined), the T/C (dose: 12.5 mg/kg/injection, schedule: Q04DX003 (ip), vehicle: Klucel (hydroxypropylcellulose) (HPC)) was 114 % of control and the T/C (dose: 25.0 mg/kg/injection, schedule: Q04DX003 (ip), vehicle: Klucel (hydroxypropylcellulose) (HPC)) was 104 % of control.

NC(=O)N(CCCO)/N=C\c1ccc([N+](=O)[O-])o1 was tested, and the T/C (dose: 100.0 mg/kg/injection, schedule: Q04DX002 (ip), vehicle: Klucel (hydroxypropylcellulose) (HPC)) was 100 % of control and the T/C (dose: 200.0 mg/kg/injection, schedule: Q04DX002 (ip), vehicle: Klucel (hydroxypropylcellulose) (HPC)) was 96 % of control.

For c1ccc(NNCC[P+](c2ccccc2)(c2ccccc2)c2ccccc2)cc1, the T/C (dose: 15.0 mg/kg/injection, schedule: Q01DX001 (ip), vehicle: carboxymethylcellulose (CMC)) was 91 % of control.

CC1=NN(c2ccccc2)C(=O)C1N=Nc1ccc(S(=O)(=O)Nc2occ(C)c2C)cc1 (centres undefined) was tested, and the T/C [16] was 90 % of control, the T/C [17] was 90 % of control and the T/C [18] was 93 % of control.

For N#Cc1ccsc1C#N, the T/C [8] was 109 % of control.

With Clc1ccc2c(Cl)cc(Cl)nc2c1 the T/C [9] was 92 % of control and the T/C [10] was 87 % of control.

Clc1ccc(CSc2ncc(Br)c(N3CC3)n2)c(Cl)c1 was tested, and the T/C (dose: 88.0 mg/kg/injection, schedule: Q01DX Z (ip), vehicle: methylcellulose (MC)) was 89 % of control and the T/C (dose: 133.0 mg/kg/injection, schedule: Q01DX Z (ip), vehicle: methylcellulose (MC)) was 94 % of control.
